Data from EP3782997A1, “FUSED PYRIMIDINE COMPOUNDS AND PHARMACEUTICAL COMPOSITIONS THEREOF FOR THE TREATMENT OF FIBROTIC DISEASES” (Galapagos N.V., priority 2019, dated 2021).

These compounds were tested against hENPP2 (Homo sapiens, UniProt Q13822) (assay: Human ENPP2 (hENPP2) biochemical assay using LPC as substrate). Details: 150 µM LPC (palmitoyl 16:0), 37°C for 30 min.
Summary of the method: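 IC50 came from compound series (top 50 µM, 1/3 steps) incubated 30 min at 37°C with 1 or 3 µg/mL final enzyme and palmitoyl LPC added at 150 µM, pH 8.5 Tris buffer with Ca2+. Choline output measured as quinoneimine dye at 555 nm via coupled oxidase/HRP/TOOS detection.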

SMILES | IC50 [nM]
C[C@@H]1C[C@H](N2Cc3cnc(Nc4ccc(Cl)cc4)nc3C2)CCN1C(=O)c1ccc2[nH]nnc2c1 [compound 135, 1H-benzotriazol-5-yl-[(2R,4R)-4-[2-(4-chloroanilino)-5,7-dihydropyrrolo[3,4-d]pyrimidin-6-yl]-2-methyl-1-piperidyl]methanone] | 0.01 to 100
Cc1cc(C)cc(Nc2ncc3c(n2)CN(C2CCN(C(=O)c4cc5nn[nH]c5cn4)CC2)C3)c1 [compound 140, [4-[2-(3,5-dimethylanilino)-5,7-dihydropyrrolo[3,4-d]pyrimidin-6-yl]-1-piperidyl]-(3H-triazolo[4,5-c]pyridin-6-yl)methanone] | 100 to 500
CCOc1cc2[nH]nnc2cc1C(=O)N1CCC(N2Cc3cnc(Nc4cc(C)cc(C)c4)nc3C2)CC1 [compound 141, [4-[2-(3,5-dimethylanilino)-5,7-dihydropyrrolo[3,4-d]pyrimidin-6-yl]-1-piperidyl]-(6-ethoxy-1H-benzotriazol-5-yl)methanone] | 0.01 to 100
C[C@@H]1C[C@@H](N2Cc3cnc(Nc4ccc(F)cc4)nc3C2)CCN1C(=O)c1ccc2[nH]nnc2c1 [compound 143, 1H-benzotriazol-5-yl-[(2R,4S)-4-[2-(4-fluoroanilino)-5,7-dihydropyrrolo[3,4-d]pyrimidin-6-yl]-2-methyl-1-piperidyl]methanone] | 500 to 1000
C[C@@H]1C[C@H](N2Cc3cnc(Nc4ccc(F)cc4)nc3C2)CCN1C(=O)c1ccc2[nH]nnc2c1 [compound 144, 1H-benzotriazol-5-yl-[(2R,4R)-4-[2-(4-fluoroanilino)-5,7-dihydropyrrolo[3,4-d]pyrimidin-6-yl]-2-methyl-1-piperidyl] methanone] | 0.01 to 100
COC(=O)c1cccc(C(=O)N2CC[C@@H](N3Cc4cnc(Nc5cc(C)cc(C)c5)nc4C3)C[C@H]2C)c1 [compound 145, methyl 3-[(2R,4R)-4-[2-(3,5-dimethylanilino)-5,7-dihydropyrrolo[3,4-d]pyrimidin-6-yl]-2-methyl-piperidine-1-carbonyl]benzoate] | > 1000
Cc1cc(C)cc(Nc2ncc3c(n2)CN([C@@H]2CCN(C(=O)c4c[nH]nn4)[C@H](C)C2)C3)c1 [compound 147, [(2R,4R)-4-[2-(3,5-dimethylanilino)-5,7-dihydropyrrolo[3,4-d]pyrimidin-6-yl]-2-methyl-1-piperidyl]-(1H-triazol-4-yl)methanone] | 0.01 to 100
COc1ccc(Nc2ncc3c(n2)CN([C@@H]2CCN(C(=O)c4ccc5[nH]nnc5c4)[C@H](C)C2)C3)cc1 [compound 149, 1H-benzotriazol-5-yl-[(2R,4R)-4-[2-(4-methoxyanilino)-5,7-dihydropyrrolo[3,4-d]pyrimidin-6-yl]-2-methyl-1-piperidyl] methanone] | 0.01 to 100
C[C@@H]1C[C@H](N2Cc3cnc(Nc4ccc(S(F)(F)(F)(F)F)cc4)nc3C2)CCN1C(=O)c1ccc2[nH]nnc2c1 [compound 150, 1H-benzotriazol-5-yl-[(2R,4R)-2-methyl-4-[2-[4-(pentafluoro-λ^6-sulfanyl)anilino]-5,7-dihydropyrrolo[3,4-d]pyrimidin-6-yl]-1-piperidyl]methanone] | 0.01 to 100
COc1cc(Nc2ncc3c(n2)CN([C@@H]2CCN(C(=O)c4ccc5[nH]nnc5c4)[C@H](C)C2)C3)cc(OC)c1 [compound 151, 1H-benzotriazol-5-yl-[(2R,4R)-4-[2-(3,5-dimethoxyanilino)-5,7-dihydropyrrolo[3,4-d]pyrimidin-6-yl]-2-methyl-1-piperidyl]methanone] | 0.01 to 100
C[C@@H]1C[C@H](N2Cc3cnc(Nc4ccc(C(F)(F)F)cc4)nc3C2)CCN1C(=O)c1ccc2[nH]nnc2c1 [compound 152, 1H-benzotriazol-5-yl-[(2R,4R)-2-methyl-4-[2-[4-(trifluoromethyl)anilino]-5,7-dihydropyrrolo[3,4-d]pyrimidin-6-yl]-1-piperidyl]methanone] | 0.01 to 100
Cc1cc(C)cc(Nc2ncc3c(n2)CN([C@@H]2CCN(C(=O)c4ccnc(NS(C)(=O)=O)c4)[C@H](C)C2)C3)c1 [compound 154, N-[4-[(2R,4R)-4-[2-(3,5-dimethylanilino)-5,7-dihydropyrrolo[3,4-d]pyrimidin-6-yl]-2-methyl-piperidine-1-carbonyl]-2-pyridyl]methanesulfonamide] | 0.01 to 100
Cc1cc(C)cc(Nc2ncc3c(n2)CN([C@@H]2CCN(C(=O)c4ccc(NS(C)(=O)=O)nc4)[C@H](C)C2)C3)c1 [compound 155, N-[5-[(2R,4R)-4-[2-(3,5-dimethylanilino)-5,7-dihydropyrrolo[3,4-d]pyrimidin-6-yl]-2-methyl-piperidine-1-carbonyl]-2-pyridyl]methanesulfon amide] | 0.01 to 100
Cc1cc(C)cc(Nc2ncc3c(n2)CN([C@@H]2CCN(C(=O)c4ccc5c(c4)CC(=O)N5)[C@H](C)C2)C3)c1 [compound 156, 5-[(2R,4R)-4-[2-(3,5-dimethylanilino)-5,7-dihydropyrrolo[3,4-d]pyrimidin-6-yl]-2-methyl-piperidine-1-carbonyl]indolin-2-one] | 0.01 to 100
Cc1cc(C)cc(Nc2ncc3c(n2)CN([C@@H]2CCN(C(=O)c4ccc5[nH]c(=O)[nH]c5c4)[C@H](C)C2)C3)c1 [compound 157, 5-[(2R,4R)-4-[2-(3,5-dimethylanilino)-5,7-dihydropyrrolo[3,4-d]pyrimidin-6-yl]-2-methyl-piperidine-1-carbonyl]-1,3-dihydrobenzimidazol-2-one] | 0.01 to 100
Cc1cc(C)cc(Nc2ncc3c(n2)CN([C@@H]2CCN(C(=O)c4ccc(S(N)(=O)=O)nc4)[C@H](C)C2)C3)c1 [compound 159, 5-[(2R,4R)-4-[2-(3,5-dimethylanilino)-5,7-dihydropyrrolo[3,4-d]pyrimidin-6-yl]-2-methyl-piperidine-1-carbonyl]pyridine-2-sulfonamide] | 500 to 1000
Cc1cc(C)cc(Nc2ncc3c(n2)CN([C@@H]2CCN(C(=O)c4cn(C)nn4)[C@H](C)C2)C3)c1 [compound 161, [(2R,4R)-4-[2-(3,5-dimethylanilino)-5,7-dihydropyrrolo[3,4-d]pyrimidin-6-yl]-2-methyl-1-piperidyl]-(1-methyltriazol-4-yl)methanone] | > 1000
Cc1cc(C)cc(Nc2ncc3c(n2)CCN(C2CCN(C(=O)c4c[nH]nn4)CC2)C3)c1 [compound 162, [4-[2-(3,5-dimethylanilino)-7,8-dihydro-5H-pyrido[4,3-d]pyrimidin-6-yl]-1-piperidyl]-(1H-triazol-4-yl)methanone] | > 1000
Cc1cc(C)cc(Nc2ncc3c(n2)CN([C@@H]2CCN(C(=O)c4cc5nn[nH]c5cc4C)[C@H](C)C2)C3)c1 [compound 163, [(2R,4R)-4-[2-(3,5-dimethylanilino)-5,7-dihydropyrrolo[3,4-d]pyrimidin-6-yl]-2-methyl-1-piperidyl]-(6-methyl-1H-benzotriazol-5-yl)methanone] | 0.01 to 100
C[C@@H]1C[C@@H](N2Cc3cnc(Nc4ccccc4)nc3C2)CCN1C(=O)c1ccc2[nH]nnc2c1 [compound 165, [(2R,4S)-4-(2-anilino-5,7-dihydropyrrolo[3,4-d]pyrimidin-6-yl)-2-methyl-1-piperidyl]-(1H-benzotriazol-5-yl)methanone] | > 1000
C[C@@H]1C[C@H](N2Cc3cnc(Nc4ccccc4)nc3C2)CCN1C(=O)c1ccc2[nH]nnc2c1 [compound 166, [(2R,4R)-4-(2-anilino-5,7-dihydropyrrolo[3,4-d]pyrimidin-6-yl)-2-methyl-1-piperidyl]-(1H-benzotriazol-5-yl)methanone] | 100 to 500
Cc1cc(C)cc(Nc2ncc3c(n2)CN([C@@H]2CCN(C(=O)c4ccc5[nH]nnc5c4C)[C@H](C)C2)C3)c1 [compound 168, [(2R,4R)-4-[2-(3,5-dimethylanilino)-5,7-dihydropyrrolo[3,4-d]pyrimidin-6-yl]-2-methyl-1-piperidyl]-(4-methyl-1H-benzotriazol-5-yl)methanone] | 0.01 to 100
COc1cccc(Nc2ncc3c(n2)CN([C@H]2CCN(C(=O)c4ccc5[nH]nnc5c4)[C@H](C)C2)C3)c1 [compound 170, 1H-benzotriazol-5-yl-[(2R,4S)-4-[2-(3-methoxyanilino)-5,7-dihydropyrrolo[3,4-d]pyrimidin-6-yl]-2-methyl-1-piperidyl]methanone] | 100 to 500
COc1cccc(Nc2ncc3c(n2)CN([C@@H]2CCN(C(=O)c4ccc5[nH]nnc5c4)[C@H](C)C2)C3)c1 [compound 171, 1H-benzotriazol-5-yl-[(2R,4R)-4-[2-(3-methoxyanilino)-5,7-dihydropyrrolo[3,4-d]pyrimidin-6-yl]-2-methyl-1-piperidyl]methanone] | 0.01 to 100
C[C@@H]1C[C@H](N2Cc3cnc(Nc4ccc(F)cc4)nc3C2)CCN1C(=O)c1c[nH]nn1 [compound 173, [(2R,4R)-4-[2-(4-fluoroanilino)-5,7-dihydropyrrolo[3,4-d]pyrimidin-6-yl]-2-methyl-1-piperidyl]-(1H-triazol-4-yl)methanone] | > 1000
Cc1cc(C)cc(Nc2ncc3c(n2)CCN(C2CCN(C(=O)c4ccnc(NS(C)(=O)=O)c4)CC2)C3)c1 [compound 174, N-[4-[4-[2-(3,5-dimethylanilino)-7,8-dihydro-5H-pyrido[4,3-d]pyrimidin-6-yl]piperidine-1-carbonyl]-2-pyridyl]methanesulfonamide] | > 1000
C[C@@H]1C[C@H](N2Cc3cnc(Nc4ccc(C(F)(F)F)cc4)nc3C2)CCN1C(=O)c1c[nH]nn1 [compound 175, [(2R,4R)-2-methyl-4-[2-[4-(trifluoromethyl)anilino]-5,7-dihydropyrrolo[3,4-d]pyrimidin-6-yl]-1-piperidyl]-(1H-triazol-4-yl)methanone] | 0.01 to 100
Cc1cc(C)cc(Nc2ncc3c(n2)CN([C@@H]2CCN(C(=O)c4nn[nH]c4C)[C@H](C)C2)C3)c1 [compound 176, [(2R,4R)-4-[2-(3,5-dimethylanilino)-5,7-dihydropyrrolo[3,4-d]pyrimidin-6-yl]-2-methyl-1-piperidyl]-(5-methyl-1H-triazol-4-yl)methanone] | 0.01 to 100
